Consider four compounds from patent US20200123127A1, “REMOVAL OF SENESCENCE-ASSOCIATED MACROPHAGES” (EVERON BIOSCIENCES, INC., priority 2016, published 2020).

Entries after “also recorded” stand apart in the source; their conditions may differ. Like-named read-outs stand apart in the source and are kept apart here.

As usually defined, the IC50 is the point on the concentration scale where inhibition reaches its midpoint.

In one assay the test system is SAMs. As to the kind of experiment: SAM viability (CyQuant Direct / resazurin). The format is cell-based, mouse. The following applies: for SAM cell viability: 2.5 to 10 μM. As to the method:
FIG. 8. Immunomodulatory regulation of p16(Ink4a) and SAβG in macrophages. Peritoneal lavage cells elicited by alginate-encapsulated SCs from p16^Ink4a/Luc mice were treated ex vivo with immunomodulatory agents for up to 72 hours. (A) mRNA expression of p16(Ink4a) and β-galactosidase (Glb1) in macrophages (relative to B2m expression) with or without LPS stimulation for 72 hours analyzed via qRT-PCR, normalized to non-treated controls. (B) Microphotograph of SAβG-stained adherence-selected macrophages with or without stimulation with LPS (1 ng/mL) for 72 hours (10× objective). (C&D) Kinetics of p16(Ink4a) promoter-dependent luciferase activity per cell with or without LPS stimulation (C) or IL-4 stimulation (D), normalized to activity from non-treated cells at time zero. Results are shown as the mean±standard deviation for at least 3 experiments. Statistical significance with respect to non-treated control at time zero is indicated. (E) Luciferase activity and (3-galactosidase activity (via 4-MUG hydrolysis) from proteose peptone-elicited lavage cells following stimulation with IL-4 (20 ng/mL) for 72 hours, normalized to non-treated controls. (F) Viability following 72 hour dose-response to JAK1/2 inhibitor Ruxolitinib in the presence or absence of IL-4 (10 ng/mL) stimulation, measured by CyQuant Direct DNA-based viability assay. Viability normalized to respective controls lacking Ruxolitinib. (G&H) Dose-response of STAT6 inhibitor AS1517499 against luciferase activity (G) and viability via CyQuant Direct assay (H) following 72 hour treatment in the presence and absence of IL-4 (10 ng/mL). Results normalized to respective controls (with or without IL-4) lacking STAT6 inhibitor. Statistical significance is calculated with respect to the difference between IL-4 stimulated and non-stimulated cells at each concentration of STAT6 inhibitor. (I) Relative luciferase activity per cell following repolarization with M1- and M2-inducing agents. Macrophages were left non-treated (NT) or treated with either LPS (1 ng/ml) or IL-4 (20 ng/ml) for 72 hours (days 1-3), as indicated. For each treatment set, samples were collected at 72 hours (no further treatment; days 4-6=x). Alternatively, cells were washed and placed in fresh medium (−), medium containing LPS (1 ng/mL) and IFN-γ (10 ng/mL), or medium containing IL-4 (20 ng/mL) and IL-13 (10 ng/mL) and incubated for an additional 72 hours prior to sample collection (as indicated for days 4-6). Luciferase activity is expressed as the percent activity per cell relative to non-treated (NT) controls after the first 72 hours.
FIG. 10. Elevated p16(Ink4a) and β-galactosidase is regulated by immunomodulatory agents in macrophages, but not in mesenchymal SCs. Primary cultures of adipose-derived mesenchymal stromal cells (AdMSC) isolated from p16^Ink4a/Luc mice were irradiated (20 Gy) and cultured for 10 days for senescence induction. Mock irradiated cells were used as a proliferating cell control. Response of senescent and proliferating AdMSCs to immunomodulatory agents were compared to that of peritoneal lavage cells elicited by our alginate bead model. A-D) Dose-response curves of LPS (top panels: […]) and Poly(I:C) (bottom panels: C&D) on p16(Ink4a) promoter-dependent luciferase activity (left panels: A&C) and beta-galactosidase activity measured via 4-MUG hydrolysis (right panels: B&D) after 72 hr treatment. […]
FIG. 13. […] SAM viability was determined using the resazurin cell viability assay (Res). […]
For orientation: Alamar Blue is a resazurin reagent that responds to reducing activity.

A further assay has as its system NF-κB. Kind of assay: NF-κB luciferase reporter in HT1080 cells. In kind it is cell-based. The note with it: HT1080 cells carrying IPTG-inducible p21. In general terms: A reporter such as luciferase makes a cellular process visible.
Assay [1] relates to p16(Ink4a) expression in adipose tissue macrophages. Kind of assay: Poly(I:C) in chronologically aged p16Ink4a/Luc mice. In kind it is in vivo, mouse. As to the method: Given that macrophages contribute to the elevated p16(Ink4a) expression observed in aged mice, we investigated whether this expression was susceptible to immunomodulatory regulation. Chronologically aged mice (83-weeks old) were treated with Poly(I:C) and the luminescence of individual organs was quantitated via IVIS. […] Thus, the observed decrease in the luciferase signal in adipose tissue upon treatment with Poly(I:C) was not accompanied by the depletion of macrophages.

Assay [2] deals with mSQ primary adipose-derived mesenchymal stromal cells. As to the kind of experiment: Anti-senescent cytotoxicity, senescent vs proliferating mSQ. The format is cell-based, Mouse. The following applies: for IC50: Mus musculus.
The test system of assay [3] is SK-Mel-103 melanoma cells. Kind of assay: Anti-senescent cytotoxicity, senescent vs proliferating SK-Mel-103. The format is cell-based, Human. The note with it: for IC50: Homo sapiens.
Assay [4] concerns RWPE-1 normal prostate epithelial cells. As to the kind of experiment: dnPTEN-induced senescence model in RWPE-1 cells (SA-beta-Gal and methylene blue staining). In kind it is cell-based. The following applies: 10 uM for 72 hours. As to the method: FIG. 3. Activity of A1.1 and analog A1.12 in a model of dnPTEN-induced senescence in RWPE-1 normal prostate epithelial cells. A population of transduced RWPE-1 cells containing doxycycline-inducible dnPTEN was senesced via 1 ug/ml doxycycline for 7 days. Cells which bypass senescence continued to proliferate to form a confluent monolayer. The mixed population of senescent and proliferating cells was treated with A1.1 and A1.12 at 10 uM for 72 hours. SA-beta-Gal staining was used to monitor the amount of senescent cells of treatment groups compared to non-treated control. In addition, methylene blue was used to quantitate overall cell mass, which was comprised mostly of the non-senescent, proliferating cells. Treatment with the anti-senescent compounds led to a substantial decrease in SA-beta-Gal staining, while the amount of methylene blue staining was less affected.
Senescent cells are strongly associated with benign prostate hyperplasia (BPH) and the development of prostate cancer [Vital, P. et al. (2014) The Senescence-Associated Secretory Phenotype Promotes Benign Prostatic Hyperplasia. Am J Pathol, 184(3): 721-731; Burton, D. et al. (2013). Androgen Deprivation-Induced Senescence Promoted Outgrowth of Anderogen-Refractory Protstate Cancer Cells. PLOS One, 8(6):e68003]. […] We sought to evaluate the efficacy of our compounds in a model of RWPE-1 normal prostate epithelial cells transduced with a construct for inducible loss of PTEN function [doxycycline-inducible expression of a dominant-negative PTEN (dnPTEN) mutant]. In the presence of doxycycline, a fraction of the population of transduced cells became senescent, while cells bypassing senescence continued to grow until a confluent monolayer was formed.

In the case of `O=C(NCCCc1cn[nH]c1)c1ccc(-c2ccncc2)c(C#Cc2ccc(F)cc2)c1` [OT-82], in the assay with SAMs (resazurin), the “toxicity to SAMs in combination with inducers of the M1-phenotype (LPS and interferon-gamma)” value is “toxic”. In addition, in the assay with SAMs (resazurin / CyQuant, 500 nM), the “toxicity to SAMs, OT-82 by itself” value is on record as “low SAM toxicity; also recorded: almost non-toxic; also recorded: not toxic”. The “basal and inducible activity of NF-κB” value with NF-κB was “inhibits both basal and inducible activity”.

Consider `COc1ccc(C2CC(=NO)c3c(SCc4ccccc4)sc(C(=O)NCc4cccc(F)c4)c3C2)cc1` (stereo not drawn) [Example A1.6, 3-(Benzylthio)-N-(3-fluorobenzyl)-4-(hydroxyimino)-6-(4-methoxyphenyl)-4,5,6,7-tetrahydrobenzo[c]thiophene-1-carboxamide], for which the SAM cell viability result with SAMs (resazurin / CyQuant, listed as TA-4812) is recorded as “no effect”; in the assay on SAMs (resazurin / CyQuant, listed as TA-04812-1), “little to no effect”.

Turning to Poly(I:C), the “luminescence of other tissues (spleen, lungs, kidney, liver)” value in assay [1] (83-weeks old mice) is given as “no significant effects”. Moreover, in assay [1] (83-weeks old mice, IVIS of organs), the “reduction in luminescence from visceral adipose tissue” value is reported as around 4 fold. Further, the “luciferase activity from isolated stromal vascular fraction vs saline” value in assay [1] (per cell or per gram of fat) is recorded as “significantly decreased”.

Consider `CCOC(=O)c1sc(SCc2ccccc2)c2c1CC(c1ccc(OC)cc1)C/C2=N\O` (stereo not drawn) [Example A1.1], for which the IC50 in assay [2] (light or radiation study, mSQ, senescence induction: Irradiation, read-out: Activity against Senescent Cells (IC50; uM)) turned out to be 9.9 µM; in assay [2] (mSQ proliferating, read-out: Activity against Proliferating Cells (IC50; uM)), 14.7 µM; in assay [2] (mSQ, senescence induction: Bleomycin, read-out: Activity against Senescent Cells (IC50; uM)), 6.7 µM; in assay [3] (SK-Mel-103, senescence induction: Bleomycin, read-out: Activity against Senescent Cells (IC50; uM)), 5.6 µM; in assay [3] (SK-Mel-103 proliferating, read-out: Activity against Proliferating Cells (IC50; uM)), 18.5 µM. For the same compound, the “Selectivity (Prolif/Sen)” value in assay [2] (mSQ, Bleomycin) stood at 2.2; in assay [2] (mSQ, Irradiation) it was 1.5; in assay [3] (SK-Mel-103, Bleomycin), 3.3. In addition, the “proliferating cells / overall cell mass (methylene blue staining)” value in assay [4] is listed as “inhibit growth of proliferating cells”. In addition, in assay [4] (dnPTEN-induced senescence), the “senescent cells (number of SA-β-Gal-positive cells)” value is “selective elimination of senescent cells”.
